The target in the assay is T1, StGE2 (Thermothelomyces thermophilus, UniProt G2QJR6).
T1 construct: gene ge2; produced in a P. pastoris strain from the OPTIBIOCAT consortium; construct not described
T1 sequence (G2QJR6 19-397): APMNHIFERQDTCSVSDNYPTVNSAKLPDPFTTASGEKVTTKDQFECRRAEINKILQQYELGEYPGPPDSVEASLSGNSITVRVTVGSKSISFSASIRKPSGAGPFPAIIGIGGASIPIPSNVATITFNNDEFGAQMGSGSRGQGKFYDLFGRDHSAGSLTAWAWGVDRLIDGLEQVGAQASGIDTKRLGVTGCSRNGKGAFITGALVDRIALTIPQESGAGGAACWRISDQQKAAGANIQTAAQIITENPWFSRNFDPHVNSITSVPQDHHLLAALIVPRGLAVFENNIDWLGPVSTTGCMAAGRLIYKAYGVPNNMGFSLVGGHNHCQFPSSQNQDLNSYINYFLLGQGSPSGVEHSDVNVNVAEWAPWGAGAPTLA
Description: coupled spectrophotometric GlcA release (K-URONIC kit), relative activity. The conditions noted are these: 2 mM substrate, pH 6.0, 35 °C, 30 min; purification of StGE2 not described. The assay is classed as biochemical.

Structures are written as SMILES.

Regarding `O=C(OCc1ccccc1)[C@H]1OC(O)[C@H](O)[C@@H](O)[C@@H]1O` (stereo partly shown) [BnGlcA], the “coupled spectrophotometric GlcA release (K-URONIC kit), relative activity” value is given as “enzyme action on BnGlcA produced the highest amount of hydrolysed glucuronic acid”.

The values are drawn from article PMC5486812, “Characterisation of three fungal glucuronoyl esterases on glucuronic acid ester model compounds” (Applied Microbiology and Biotechnology, 2017).
